Experimental data published in patent US20210300940A1 (Merck Patent GmbH, priority 2018, published 2021).
pIC50: −log10 of the molar value. Counter-ions that a name gives are not always drawn.

Experiments:
TLR7 = biological target: T1, TLR7 (Homo sapiens, UniProt Q9NYK1); experiment: HEK/293 TLR7 Cell Assay; type: cell-based; conditions: TLR7/NFKb HEK cells, R848 agonist 10 uM final concentration, Steady-Glo readout; read-out: TLR7 potency
T1 construct: expressed in transfected cells; host or cells: HEK/293 cells carrying TLR7 and an NF-kB luciferase reporter
T1 sequence (Q9NYK1 27-1049): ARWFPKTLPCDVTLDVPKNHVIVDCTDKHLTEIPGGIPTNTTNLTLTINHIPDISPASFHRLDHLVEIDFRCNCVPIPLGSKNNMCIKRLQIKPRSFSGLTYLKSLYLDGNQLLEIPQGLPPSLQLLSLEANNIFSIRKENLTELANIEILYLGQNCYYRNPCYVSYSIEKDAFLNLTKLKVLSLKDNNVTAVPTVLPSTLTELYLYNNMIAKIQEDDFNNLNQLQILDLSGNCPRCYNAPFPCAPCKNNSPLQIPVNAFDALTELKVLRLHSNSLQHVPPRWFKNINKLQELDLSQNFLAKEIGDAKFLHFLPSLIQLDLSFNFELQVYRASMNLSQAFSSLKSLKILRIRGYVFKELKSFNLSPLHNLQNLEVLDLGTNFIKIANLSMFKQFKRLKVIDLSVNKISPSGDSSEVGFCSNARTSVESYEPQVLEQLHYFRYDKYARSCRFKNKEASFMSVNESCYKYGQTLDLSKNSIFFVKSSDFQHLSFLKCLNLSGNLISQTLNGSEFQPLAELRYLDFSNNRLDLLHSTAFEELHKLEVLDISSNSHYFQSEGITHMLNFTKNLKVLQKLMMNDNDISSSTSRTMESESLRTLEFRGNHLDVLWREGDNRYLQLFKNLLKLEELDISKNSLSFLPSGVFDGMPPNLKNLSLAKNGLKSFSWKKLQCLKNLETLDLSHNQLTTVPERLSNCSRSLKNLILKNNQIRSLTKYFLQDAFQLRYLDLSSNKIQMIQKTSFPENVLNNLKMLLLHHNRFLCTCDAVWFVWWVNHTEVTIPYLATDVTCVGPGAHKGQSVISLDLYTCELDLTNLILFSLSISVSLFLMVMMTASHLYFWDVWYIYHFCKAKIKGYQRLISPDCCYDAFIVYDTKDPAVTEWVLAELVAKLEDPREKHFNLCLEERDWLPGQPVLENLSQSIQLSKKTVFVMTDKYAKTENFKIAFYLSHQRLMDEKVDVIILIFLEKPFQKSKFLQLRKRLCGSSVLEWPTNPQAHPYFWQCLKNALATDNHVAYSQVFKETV
In short: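 Compounds added to HEK cells expressing TLR7 with an NFκB reporter 30 min ahead of 10 uM R848 challenge; luciferase signal (Steady-Glo) measured after 5 h, cells having been seeded 24 h earlier at 5000 per well.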

TLR8 = biological target: T2, TLR8 (Homo sapiens, UniProt Q9NR97); experiment: HEK/293 TLR8 Cell Assay; type: cell-based; conditions: HEK cells, R848 agonist 30 uM final concentration, Steady-Glo readout; read-out: TLR8 potency
T2 construct: expressed in transfected cells; host or cells: HEK/293 reporter cells (NF-kB luciferase)
T2 sequence (Q9NR97 27-1041): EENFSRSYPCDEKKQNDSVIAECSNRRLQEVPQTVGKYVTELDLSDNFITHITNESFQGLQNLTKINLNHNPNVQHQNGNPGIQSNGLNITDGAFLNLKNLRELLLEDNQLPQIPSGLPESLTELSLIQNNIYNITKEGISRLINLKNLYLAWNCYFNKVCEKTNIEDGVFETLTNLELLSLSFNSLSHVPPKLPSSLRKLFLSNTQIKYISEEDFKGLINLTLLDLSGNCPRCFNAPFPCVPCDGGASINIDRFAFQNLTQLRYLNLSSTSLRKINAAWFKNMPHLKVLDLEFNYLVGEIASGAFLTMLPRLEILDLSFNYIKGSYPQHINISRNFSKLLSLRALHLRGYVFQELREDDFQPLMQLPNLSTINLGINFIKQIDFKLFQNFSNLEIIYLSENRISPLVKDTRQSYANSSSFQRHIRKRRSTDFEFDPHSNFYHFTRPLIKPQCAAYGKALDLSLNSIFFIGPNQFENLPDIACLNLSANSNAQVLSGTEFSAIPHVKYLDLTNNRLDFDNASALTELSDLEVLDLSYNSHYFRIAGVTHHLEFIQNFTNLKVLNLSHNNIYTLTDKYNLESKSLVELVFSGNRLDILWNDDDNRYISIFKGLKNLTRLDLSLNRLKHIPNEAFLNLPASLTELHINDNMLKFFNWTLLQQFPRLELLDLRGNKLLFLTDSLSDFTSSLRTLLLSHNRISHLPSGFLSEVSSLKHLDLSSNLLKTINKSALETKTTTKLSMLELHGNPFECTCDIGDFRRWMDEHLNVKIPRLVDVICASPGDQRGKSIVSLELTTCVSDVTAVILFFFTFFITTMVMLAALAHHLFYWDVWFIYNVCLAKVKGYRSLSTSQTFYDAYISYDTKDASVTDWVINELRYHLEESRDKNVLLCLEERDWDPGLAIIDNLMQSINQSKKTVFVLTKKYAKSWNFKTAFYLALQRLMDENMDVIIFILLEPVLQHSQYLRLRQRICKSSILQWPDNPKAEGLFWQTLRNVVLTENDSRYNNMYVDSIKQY

Row | SMILES | pIC50 (TLR7) | pIC50 (TLR8)
1 | C[C@H]1C[C@@H](NCCC(=O)N2CC(O)C2)CN(c2ccc(C(F)(F)F)c3ncccc23)C1 [Example 53, 1-(3-Hydroxy-azetidin-1-yl)-3-[(3R,5S)-5-methyl-1-(8-trifluoromethyl-quinolin-5-yl)-piperidin-3-ylamino]-propan-1-one] | > 7.12 | 6.82 to 7.12
2 | C[C@H]1C[C@@H](OCCN2CCN(C)CC2)CN(c2ccc(C(F)(F)F)c3ncccc23)C1 (racemic) [Example 2, 5-[cis-3-methyl-5-[2-(4-methylpiperazin-1-yl)ethoxy]piperidin-1-yl]-8-(trifluoromethyl)quinoline] | > 7.12 | > 7.12
3 | N#Cc1ccc(N2C[C@H](NCCNC(N)=O)C[C@H](C(F)(F)F)C2)c2cccnc12 [Example 40, {2-[(3R,5S)-1-(8-Cyano-quinolin-5-yl)-5-trifluoromethyl-piperidin-3-ylamino]-ethyl}-urea] | < 6.82 | 6.82 to 7.12
4 | N#Cc1ccc(N2C[C@@H](C(=O)N[C@H]3CNC[C@H]3F)O[C@@H](C(F)(F)F)C2)c2nccnc12 (single isomer, unassigned) [Example 304] | > 7.12 | > 7.12
5 | COC[C@H](O)CNC(=O)[C@H]1CN(c2ccc(C#N)c3nccnc23)C[C@@H](C)O1 (single isomer, unassigned) [Example 326] | 6.82 to 7.12 | > 7.12
6 | C[C@H]1C[C@@H](NC(=O)[C@@H]2C[C@H](O)CN2)CN(c2ccc(C#N)c3nccnc23)C1 [Example 116, (2S,4S)—N-[(3R,5S)-1-(8-cyanoquinoxalin-5-yl)-5-methylpiperidin-3-yl]-4-hydroxypyrrolidine-2-carboxamide] | < 6.82 | > 7.12
7 | Cc1c(F)cc(N2C[C@@H](C)O[C@@H](C(=O)N[C@H]3CNC[C@H]3F)C2)c2cccnc12 [Example 298, (2R,6R)-4-(7-Fluoro-8-methyl-quinolin-5-yl)-6-methyl-morpholine-2-carboxylic acid ((3S,4R)-4-fluoro-pyrrolidin-3-yl)-amide] | > 7.12 | > 7.12
8 | C[C@H]1C[C@@H](N)CN(c2cnc(C#N)c3nccnc23)C1 [Example 187, 8-((3R,5S)-3-Amino-5-methyl-piperidin-1-yl)-pyrido[3,4-b]pyrazine-5-carbonitrile hydrochloride] | > 7.12 | > 7.12
9 | C[C@@H]1CN(c2cnc(C(F)(F)F)c3ncccc23)C[C@H](CN2CCN(C)CC2)O1 [Example 387, 5-[(2R,6S)-2-Methyl-6-(4-methyl-piperazin-1-ylmethyl)-morpholin-4-yl]-8-trifluoromethyl-[1,7]naphthyridine] | 6.82 to 7.12 | 6.82 to 7.12
10 | N#Cc1ccc(N2C[C@H](NC(=O)CO)C[C@H](C(F)(F)F)C2)c2cccnc12 [Example 62, N-[(3R,5S)-1-(8-Cyano-quinolin-5-yl)-5-trifluoromethyl-piperidin-3-yl]-2-hydroxy-acetamide] | < 6.82 | < 6.82
11 | C[C@H](O)CNC(=O)[C@@H]1CN(c2ccc(C#N)c3nccnc23)C[C@H](C(F)(F)F)O1 (single isomer, unassigned) [Example 287] | 6.82 to 7.12 | 6.82 to 7.12
12 | CC(C(=O)N[C@@H]1C[C@H](C)CN(c2cnc(C#N)c3nccnc23)C1)N1CCN(C)CC1 (stereo partly drawn) [Example 190, N-[(3R,5S)-1-(5-Cyano-pyrido[3,4-b]pyrazin-8-yl)-5-methyl-piperidin-3-yl]-2-(4-methyl-piperazin-1-yl)-propionamide] | 6.82 to 7.12 | > 7.12
13 | C[C@H]1C[C@@H](NC(=O)CC2(F)CCNCC2)CN(c2ccc(C#N)c3nccnc23)C1 [Example 114, N-[(3R,5S)-1-(8-cyanoquinoxalin-5-yl)-5-methylpiperidin-3-yl]-2-(4-fluoropiperidin-4-yl)acetamide] | > 7.12 | > 7.12
14 | N#Cc1ncc(N2C[C@H](N)C[C@H](C(F)(F)F)C2)c2cccnc12 [Example 9, 5-((3R,5S)-3-Amino-5-trifluoromethyl-piperidin-1-yl)-[1,7]naphthyridine-8-carbonitrile] | > 7.12 | 6.82 to 7.12
15 | N#Cc1ccc(N2C[C@@H](C(=O)N3C[C@@H](N)C4(CC4)C3)O[C@@H](C(F)(F)F)C2)c2nccnc12 (single isomer, unassigned) [Example 312] | > 7.12 | < 6.82
16 | C[C@@H]1CN(c2ccc(C#N)c3nccnc23)C[C@H](C(=O)NC[C@@H](C)O)O1 [Example 238, (2R,6R)-4-(8-Cyano-quinoxalin-5-yl)-6-methyl-morpholine-2-carboxylic acid ((R)-2-hydroxy-propyl)-amide] | > 7.12 | > 7.12
17 | N#Cc1ccc(N2C[C@H](NC(=O)CC3CCNCC3F)C[C@H](C(F)(F)F)C2)c2cccnc12 (stereo partly drawn) [Example 138, N-[(3R,5S)-1-(8-Cyano-quinolin-5-yl)-5-trifluoromethyl-piperidin-3-yl]-2-(3-fluoro-piperidin-4-yl)-acetamide] | > 7.12 | > 7.12
18 | C[C@@H]1CN(c2ccc(C#N)c3nccnc23)C[C@H](C(=O)NCC(O)C(F)(F)F)O1 (stereo partly drawn) [Example 237, (2R,6R)-4-(8-Cyano-quinoxalin-5-yl)-6-methyl-morpholine-2-carboxylic acid (3,3,3-trifluoro-2-hydroxy-propyl)-amide] | > 7.12 | > 7.12
19 | C[C@H]1C[C@@H](NC(=O)[C@H](O)C(C)(C)O)CN(c2ccc(C#N)c3nccnc23)C1 [Example 162, (R)—N-[(3R,5S)-1-(8-Cyano-quinoxalin-5-yl)-5-methyl-piperidin-3-yl]-2,3-dihydroxy-3-methyl-butyramide] | 6.82 to 7.12 | < 6.82
20 | CN(C)CCC(=O)N[C@@H]1C[C@H](C(F)(F)F)CN(c2ccc(C#N)c3nccnc23)C1 [Example 75] | > 7.12 | > 7.12
21 | Cc1ccc(N2C[C@@H](C)C[C@@H](n3ccnc3)C2)c2cccnc12 [Example 159, 5-[(3R,5S)-3-(1H-imidazol-1-yl)-5-methylpiperidin-1-yl]-8-methylquinoline] | < 6.82 | > 7.12
22 | CC(C(=O)N[C@@H]1C[C@H](C)CN(c2ccc(C#N)c3nccnc23)C1)N1CCN(C)CC1 (single isomer, unassigned) [Example 90] | > 7.12 | > 7.12
23 | C[C@H]1C[C@@H](NC(=O)NC2CCN(C)CC2)CN(c2ccc(C(F)(F)F)c3ncccc23)C1 [Example 147, 1-(1-Methyl-piperidin-4-yl)-3-[(3R,5S)-5-methyl-1-(8-trifluoromethyl-quinolin-5-yl)-piperidin-3-yl]-urea] | < 6.82 | > 7.12
